Reference: patent US20070054916A1, “Aryl nitrogen-containing bicyclic compounds and methods of use” (Amgen Inc., priority 2004, published 2007)

System: production of TNF by monocytes activated with bacterial lipopolysaccharide (LPS)
Test: Lipopolysaccharide-activated monocyte TNF production assay
Assay type: cell-based
Details: Homo sapiens, read-out: IC50 values in the monocyte assay (LPS induced TNF release)
Method: Lipopolysaccharide-Activated Monocyte TNF Production Assay
Test compounds were evaluated in vitro for the ability to inhibit the production of TNF by monocytes activated with bacterial lipopolysaccharide (LPS). Fresh residual source leukocytes (a byproduct of plateletpheresis) were obtained from a local blood bank, and peripheral blood mononuclear cells (PBMCs) were isolated by density gradient centrifugation on Ficol-Paque Plus (Pharmacia). PBMCs were suspended at 2×10^6/ml in DMEM supplemented to contain 2% FCS, 10 mM, 0.3 mg/ml […], 100 U/ml penicillin G and […] streptomycin sulfate (complete media). Cells were plated into Falcon flat bottom, 96 well culture plates (200 μl/well) and cultured overnight at 37° C. and 6% CO2. Non-adherent cells were removed by washing with 200 μl/well of fresh medium. Wells containing adherent cells (˜70% monocytes) were replenished with 100 μl of fresh medium.
Preparation of Test Compound Stock Solutions
Test compounds were dissolved in […]. Compound stock solutions were prepared to an initial concentration of […]. Stocks were diluted initially to 20-200 μM in complete media. Nine two-fold serial dilutions of each compound were then prepared in complete medium.
Treatment of Cells with Test Compounds and Activation of TNF Production with Lipopolysaccharide
One hundred microliters of each test compound dilution were added to microtiter wells containing adherent monocytes and 100 μl complete medium. Monocytes were cultured with test compounds for 60 min at which time 25 μl of complete medium containing 30 ng/ml lipopolysaccharide from E. coli K532 were added to each well. Cells were cultured an additional 4 hrs. Culture supernatants were then removed and TNF presence in the supernatants was quantified using an ELISA.
Flat bottom, 96 well Corning High Binding ELISA plates were coated overnight (4° C.) with 150 μL/well of 3 μg/ml murine anti-human TNF-α MAb (R&D Systems #MAB210). Wells were then blocked for 1 hr at room temperature with 200 μL/well of CaCl2-free ELISA buffer supplemented to contain 20 mg/ml BSA (standard ELISA buffer: […], 150 mM NaCl, 2 mM CaCl2, 0.15 mM thimerosal, pH 7.4). Plates were washed and replenished with 100 μl of test supernatants (diluted 1:3) or standards. Standards consisted of eleven 1.5-fold serial dilutions from a stock of 1 ng/ml recombinant human TNF (R&D Systems). Plates were incubated at room temperature for 1 hr on orbital shaker (300 rpm), washed and replenished with 100 μl/well of 0.5 ug/ml goat anti-human TNF-α (R&D systems #AB-210-NA) biotinylated at a 4:1 ratio. Plates were incubated for 40 min, washed and replenished with 100 μl/well of alkaline phosphatase-conjugated streptavidin (Jackson ImmunoResearch #016-050-084) at 0.02 ug/ml. Plates were incubated 30 min, washed and replenished with 200 μl/well of 1 mg/ml of p-nitrophenyl phosphate. After 30 min, plates were read at 405 nm on a Vmax plate reader.
Standard curve data were fit to a second order polynomial and unknown TNF-α concentrations determined from their OD by solving this equation for concentration. TNF concentrations were then plotted vs. test compound concentration using a second order polynomial. This equation was then used to calculate the concentration of test compounds causing a 50% reduction in TNF production.

Work on `Cc1ccc(C(=O)Nc2ccc(C(F)(F)F)cc2N(C)CCCN(C)C)cc1-c1ccc2nc(N)ncc2c1` [Example 118, 3-(2-amino-6-quinazolinyl)-N-(2-((3-(dimethylamino)propyl)(methyl)amino)-4-(trifluoromethyl)phenyl)-4-methylbenzamide] yielded an IC50 of at most 25 µM.

`COc1ccc(NC(=O)c2ccc(C)c(-c3ccc4nc(N)ncc4c3)c2)cc1C(F)(F)F` [Example 119, 3-(2-amino-6-quinazolinyl)-4-methyl-N-(4-(methyloxy)-3-(trifluoromethyl)phenyl)benzamide] showed an IC50 of at most 25 µM.

`Cc1ccc(C(=O)Nc2cccc(C(F)(F)F)c2)cc1-c1ccc2nc(N)ncc2c1` [Example 120, 3-(2-amino-6-quinazolinyl)-4-methyl-N-(3-(trifluoromethyl)phenyl)benzamide] showed an IC50 of at most 25 µM.

In the case of `Cc1ccc(C(=O)N[C@@H](C)c2nccs2)cc1-c1ccc2nc(N)ncc2c1` [Example 121, 3-(2-amino-6-quinazolinyl)-4-methyl-N-((1S)-1-(1,3-thiazol-2-yl)ethyl)benzamide], the IC50 is reported as at most 25 µM.

In the case of `CCN(CC)CCCOc1ccc(NC(=O)c2ccc(C)c(-c3ccc4nc(N)ncc4c3)c2)cc1C(F)(F)F` [Example 122, 3-(2-amino-6-quinazolinyl)-N-(4-((3-(diethylamino)propyl)oxy)-3-(trifluoromethyl)phenyl)-4-methylbenzamide], the IC50 is reported as at most 25 µM.

Work on `Cc1ccc(C(=O)Nc2ccc(OC3CCN(C)CC3)c(C(F)(F)F)c2)cc1-c1ccc2nc(N)ncc2c1` [Example 123, 3-(2-amino-6-quinazolinyl)-4-methyl-N-(4-((1-methyl-4-piperidinyl)oxy)-3-(trifluoromethyl)phenyl)benzamide] yielded an IC50 of at most 25 µM.

`Cc1ccc(C(=O)Nc2ccc(F)c(C(F)(F)F)c2)cc1-c1ccc2nc(N)ncc2c1` [Example 124, 3-(2-amino-6-quinazolinyl)-N-(4-fluoro-3-(trifluoromethyl)phenyl)-4-methylbenzamide] gave an IC50 of at most 25 µM.

Compound `Cc1ccc(C(=O)Nc2ccc(C#N)c(C(F)(F)F)c2)cc1-c1ccc2nc(N)ncc2c1` [Example 125, 3-(2-amino-6-quinazolinyl)-N-(4-cyano-3-(trifluoromethyl)phenyl)-4-methylbenzamide] has an IC50 of at most 25 µM.

With `Cc1cc(F)c(C(=O)Nc2cccc(C(F)(F)F)c2)cc1-c1ccc2nc(N)ncc2c1` [Example 126, 5-(2-amino-6-quinazolinyl)-2-fluoro-4-methyl-N-(3-(trifluoromethyl)phenyl)benzamide] the IC50 was at most 25 µM.

With `Cc1ccc(C(=O)Nc2ccc(C(C)(C)C)cc2)cc1-c1ccc2nc(N)ncc2c1` [Example 128, 3-(2-amino-6-quinazolinyl)-N-(4-(1,1-dimethylethyl)phenyl)-4-methylbenzamide] the IC50 was at most 25 µM.

In the case of `Nc1ncc2cc(-c3cc(C(=O)Nc4cccc(C(F)(F)F)c4F)ccc3F)ccc2n1` [Example 136, 3-(2-amino-6-quinazolinyl)-4-fluoro-N-(2-fluoro-3-(trifluoromethyl)phenyl)benzamide], the IC50 is reported as at most 25 µM.

`Nc1ncc2cc(-c3cc(C(=O)Nc4cccc(C(F)(F)F)c4)ccc3F)ccc2n1` [Example 137, 3-(2-amino-6-quinazolinyl)-4-fluoro-N-(3 (trifluoromethyl)phenyl)benzamide] gave an IC50 of at most 25 µM.

`COc1ccc(C(C)(C)C)cc1NC(=O)c1ccc(F)c(-c2ccc3nc(N)ncc3c2)c1` [Example 138, 3-(2-amino-6-quinazolinyl)-N-(5-(1,1-dimethylethyl)-2-(methyloxy)phenyl)-4-fluorobenzamide] was tested, and the IC50 was at most 25 µM.

For `COc1ccc(C(C)(C)C)cc1NC(=O)c1ccc(Cl)c(-c2ccc3nc(N)ncc3c2)c1` [Example 139, 3-(2-amino-6-quinazolinyl)-4-chloro-N-(5-(1,1-dimethylethyl)-2-(methyloxy)phenyl)benzamide], the IC50 was at most 25 µM.

For `Nc1ncc2cc(-c3cc(C(=O)Nc4cccc(C(F)(F)F)c4F)ccc3Cl)ccc2n1` [Example 140, 3-(2-amino-6-quinazolinyl)-4-chloro-N-(2-fluoro-3-(trifluoromethyl)phenyl)benzamide], the IC50 was at most 25 µM.

In the case of `Cc1c(NC(=O)c2ccc(Cl)c(-c3ccc4nc(N)ncc4c3)c2)cccc1C(F)(F)F` [Example 141, 3-(2-amino-6-quinazolinyl)-4-chloro-N-(2-methyl-3-(trifluoromethyl)phenyl)benzamide], the IC50 is reported as at most 25 µM.

Work on `Nc1ncc2cc(-c3cc(C(=O)Nc4cccc(OC(F)(F)F)c4)ccc3Cl)ccc2n1` [Example 142, 3-(2-amino-6-quinazolinyl)-4-chloro-N-(3-((trifluoromethyl)oxy)phenyl)benzamide] yielded an IC50 of at most 25 µM.

`COc1ccc(Cl)cc1NC(=O)c1ccc(C)c(-c2ccc3nc(N)ncc3c2)c1` [Example 143, 3-(2-amino-6-quinazolinyl)-N-(5-chloro-2-(methyloxy)phenyl)-4-methylbenzamide] gave an IC50 of at most 25 µM.

Work on `Cc1ccc(C(=O)Nc2cc(C(F)(F)F)ccc2OCCCN(C)C)cc1-c1ccc2nc(N)ncc2c1` [Example 144, 3-(2-amino-6-quinazolinyl)-N-(2-((3-(dimethylamino)propyl)oxy)-5-(trifluoromethyl)phenyl)-4-methylbenzamide] yielded an IC50 of at most 25 µM.

In the case of `COc1ccc(C(=O)Nc2ccccc2)cc1NC(=O)c1ccc(C)c(-c2ccc3nc(N)ncc3c2)c1` [Example 145, 3-(2-amino-6-quinazolinyl)-4-methyl-N-(2-(methyloxy)-5-((phenylamino)carbonyl)phenyl) benzamide], the IC50 is reported as at most 25 µM.

`CSc1ccc(C(F)(F)F)cc1NC(=O)c1ccc(C)c(-c2ccc3nc(N)ncc3c2)c1` [Example 146, 3-(2-amino-6-quinazolinyl)-4-methyl-N-(2-(methylsulfanyl)-5-(trifluoromethyl)phenyl)benzamide] was tested, and the IC50 was at most 25 µM.

`Cc1ccc(F)c(NC(=O)c2ccc(C)c(-c3ccc4nc(N)ncc4c3)c2)c1` [Example 147, 3-(2-amino-6-quinazolinyl)-N-(2-fluoro-5-methylphenyl)-4-methylbenzamide] was tested, and the IC50 was at most 25 µM.

Compound `COc1ccc(OC)c(NC(=O)c2ccc(C)c(-c3ccc4nc(N)ncc4c3)c2)c1` [Example 148, 3-(2-amino-6-quinazolinyl)-N-(2,5-bis(methyloxy)phenyl)-4-methylbenzamide] has an IC50 of at most 25 µM.

`Nc1ncc2cc(-c3cc(C(=O)Nc4cc(C(F)(F)F)ccc4N4CCCC4)ccc3Cl)ccc2n1` [Example 155, 3-(2-amino-6-quinazolinyl)-4-chloro-N-(2-(1-pyrrolidinyl)-5-(trifluoromethyl)phenyl)benzamide] gave an IC50 of at most 25 µM.

`Nc1ncc2cc(-c3cc(C(=O)Nc4cc(C(F)(F)F)ccc4N4CCCCC4)ccc3Cl)ccc2n1` [Example 156, 3-(2-amino-6-quinazolinyl)-4-chloro-N-(2-(1-piperidinyl)-5-(trifluoromethyl)phenyl)benzamide] was tested, and the IC50 was at most 25 µM.

`Cc1ccc(C(=O)Nc2cc(C(=O)N3CCN(C)CC3)cc(C(F)(F)F)c2)cc1-c1ccc2nc(N)ncc2c1` [Example 158, 3-(2-amino-6-quinazolinyl)-4-methyl-N-(3-((4-methyl-1-piperazinyl)carbonyl)-5-(trifluoromethyl)phenyl)benzamide] was tested, and the IC50 was at most 25 µM.

Compound `Cc1ccc(C(=O)Nc2cc(CN3CCN(C)CC3)cc(C(F)(F)F)c2)cc1-c1ccc2nc(N)ncc2c1` [Example 159, 3-(2-amino-6-quinazolinyl)-4-methyl-N-(3-((4-methyl-1-piperazinyl)methyl)-5-(trifluoromethyl)phenyl)benzamide] has an IC50 of at most 25 µM.

`Cc1ccc(C(=O)OCc2ccccc2)cc1-c1ccc2nc(N)ncc2c1` [Example 160, phenylmethyl 3-(2-amino-6-quinazolinyl)-4-methylbenzoate] showed an IC50 of at most 25 µM.

In the case of `CN(C)CCCN(C)c1ccc(C(F)(F)F)cc1NC(=O)c1cc(-c2ccc3nc(N)ncc3c2)cn(C)c1=O` [Example 164, 5-(2-amino-6-quinazolinyl)-N-(2-((3-(dimethylamino)propyl)(methyl)amino)-5-(trifluoromethyl)phenyl)-1-methyl-2-oxo-1,2-dihydro-3-pyridinecarboxamide], the IC50 is reported as at most 25 µM.
